Legend:
ATM/ATR p (S/TQ) = assay: Relative immunofluorescent intensity of ATM/ATR p (S/TQ) foci in frozen liver sections; format: in vivo; conditions: single i.p. injection to juvenile mice, liver hepatocytes
Description: (§1) Eight to eleven-day-old F1 mice from C57BL/6, obtained from the National Institute of Aging, Aged Rodent Colonies (Bethesda, Md.), were injected intraperitoneally with AAT (Sigma-Aldrich; St. Louis, Mo.) at 2 mg/kg body weight in corn oil. […] Control gender-matched litter mates were injected with corn oil or PBS. […] Female C57BL/6 mice (4- and 22-month-old) were allowed to acclimate at least 1 week prior to usage. All procedures were done within the guidelines of the Animal Research Committee at the University of Illinois at Chicago and the “Principles of laboratory animal care” (NIH publication No. 86-23, revised 1985).
(§2) To detect DNA damage foci, frozen 5-micron liver sections were rapidly transferred to slides after sectioning, then immediately fixed in 2% paraformaldehyde PBS for 20 min, and then prepared following standard protocols. […] Foci-associated nuclei and total nuclei were counted using Image Pro Plus software (MediaCybernetics, Bethesda, Md.). Three to four mice were used for each time point and 300-500 nuclei were counted for each subject. Relative fluorescence intensity of foci in images was quantitated using the density measurement of the Image Pro Plus software with subtraction of local background levels. Four to seven mice were studied per time point with 8 to 18 53BP1/phospho ATM foci scored per mouse. […]

ATM p (S1987) = assay: Relative immunofluorescent intensity of phospho ATM foci in frozen liver sections; format: in vivo, mice; conditions: for Relative immunofluorescent intensity of foci for ATM p (S1987): single i.p. injection to juvenile mice, liver hepatocytes; for signal strength of phospho ATM in 53BP1/phospho ATM foci: by 7 weeks after exposure
Description: as §1
To detect DNA damage foci, frozen 5-micron liver sections were rapidly transferred to slides after sectioning, then immediately fixed in 2% paraformaldehyde PBS for 20 min, and then prepared following standard protocols. […] The specificity was verified by blockage with oligopeptides bearing the antigenic sequences. Antiphospho ATM (S1981) (Rockland Immunochemicals, Gilbertsville, Pa.; 1:800) was a mouse antibody. Anti-rabbit and anti-mouse secondary antibodies conjugated to Cy-3 were obtained from Jackson Immunoresearch (West Grove, Pa.). Prior to mouse primary antibody application, tissues were first blocked with 1% goat anti-mouse FAB (Jackson Immunoresearch) followed by incubation with 4% BSA. Slides were counterstained with 0.2 ug/ml 4′,6-diamidino-2-phenylindole (DAPI) for 2 min prior to mounting in mowiol (Calbiochem; San Diego, Calif.) with 2% 1,4-diazobicyclo[2,2,2]octane (Sigma-Aldrich). Fluorescent 400× images were typically collected immediately after the assay. Foci-associated nuclei and total nuclei were counted using Image Pro Plus software (MediaCybernetics, Bethesda, Md.). Three to four mice were used for each time point and 300-500 nuclei were counted for each subject. Relative fluorescence intensity of foci in images was quantitated using the density measurement of the Image Pro Plus software with subtraction of local background levels. Four to seven mice were studied per time point with 8 to 18 53BP1/phospho ATM foci scored per mouse. Minimally exposed images were used. The student's t-test was used for statistical comparisons for these and other experiments. For double labeling with anti-phospho ATM (S1981) and anti-53BP1 antibodies, sections were prepared as described above, first labeling with the anti-phospho-ATM (S1981) and Cy-3 secondary antibody as above, then incubated with 4% BSA, followed by anti-53BP1 and then by Alexa 488 conjugated goat anti-rabbit antibody (Invitrogen; Carlsbad, Calif.; 1:200). All secondary antibodies were pre-adsorbed to reduce cross-reactivity as verified by negative control experiments.

[1] = system: 53BP1/phospho ATM (S1981) foci in hepatocytes; assay: Hepatocytes positive for 53BP1/phospho ATM co-localized foci in liver sections; format: in vivo, mice
Description: as §1, §2

[2] = system: 53BP1 foci in hepatocytes; assay: 53BP1 foci immunolocalization in hepatocytes of frozen liver sections; format: in vivo, mice; conditions: by 2.5 days after exposure
Description: Eight to eleven-day-old F1 mice from C57BL/6, obtained from the National Institute of Aging, Aged Rodent Colonies (Bethesda, Md.), were injected intraperitoneally with AAT (Sigma-Aldrich; St. Louis, Mo.) at 2 mg/kg body weight in corn oil. […] Control gender-matched litter mates were injected with corn oil or PBS. […] All procedures were done within the guidelines of the Animal Research Committee at the University of Illinois at Chicago and the “Principles of laboratory animal care” (NIH publication No. 86-23, revised 1985).
To detect DNA damage foci, frozen 5-micron liver sections were rapidly transferred to slides after sectioning, then immediately fixed in 2% paraformaldehyde PBS for 20 min, and then prepared following standard protocols. […] The specificity was verified by blockage with oligopeptides bearing the antigenic sequences. […] Foci-associated nuclei and total nuclei were counted using Image Pro Plus software (MediaCybernetics, Bethesda, Md.). Three to four mice were used for each time point and 300-500 nuclei were counted for each subject. Relative fluorescence intensity of foci in images was quantitated using the density measurement of the Image Pro Plus software with subtraction of local background levels. Four to seven mice were studied per time point with 8 to 18 53BP1/phospho ATM foci scored per mouse. […]

phospho Chk2 (T68) = assay: Phospho Chk2 (T68) nuclear immunostaining of liver sections; format: in vivo, mice
Description: as §1, §2

p53 (S 15) = assay: Phospho p53 (S15) immunostaining of liver sections; format: in vivo, mice; conditions: baseline or near baseline levels by 3-7 weeks post exposure
Description: as §1, §2

primary hepatocytes [3] = assay: S phase index by [3H]thymidine labeling of hepatocytes isolated from exposed mice; format: cell-based; conditions: hepatocytes from juvenile mice exposed 3 weeks previously
Description: (§3) FIG. 5A Collagenase perfusion was used to isolate hepatocytes from juvenile mice exposed 3 weeks previously to AAT. Twenty-four hours prior to fixation, cells were incubated with [3H]thymidine to allow the quantitation of the S phase index after processing for autoradiography. Shown are the means plus the (standard deviations) S.D. *P<0.002 versus the controls. FIG. 5B Cells isolated as described above from mice exposed, or not exposed, to AAT were subjected to the SA-β-Gal assay after fixation. At least 100 cells were counted on each plate from 3 to 5 control mice and 5 to 6 AAT exposed mice depending on the time point. Shown are the means plus S.D. *P<0.05 versus the controls. FIG. 5C Shown is a representative bright field image of primary hepatocytes 3 days after culture. Arrows indicate the blue, peri-nuclear stained, SA β Gal-positive cells. To reduce background [3H]thymidine detection was not done in this experiment. The phase contrast image below allows better visualization of the cells, original magnification 100×. FIG. 5D Hepatocytes isolated from adult 4-month-old and 22-month-old were cultured and assayed for S phase index as described. Shown are means plus S.D. There is a lag in S phase entry in cells from these adult mice. *P<0.02 and **P<0.004. FIG. 5E Hepatocytes from young adult and aged adult mice were cultured as described and then subjected to the SA β Gal assay. […]

primary hepatocytes [4] = assay: SA β Gal assay on hepatocytes isolated from exposed mice; format: cell-based; conditions: hepatocytes from exposed mice in primary culture
Description: as §3, with “100×.” for “100×. FIG. 5D Hepatocytes isolated from adult 4-month-old and 22-month-old were cultured and assayed for S phase index as described. Shown are means plus S.D. There is a lag in S phase entry in cells from these adult mice. *P<0.02 and **P<0.004. FIG. 5E Hepatocytes from young adult and aged adult mice were cultured as described and then subjected to the SA β Gal assay.”
DNA damage repair proteins such as Chk2 that are active in DDR are not active during senesce. […] There was no enrichment of activated phospho p53 (S15) or Chk2 (T68), while phospho ATM (S1981) positive cells were detected but the foci were of low intensity (FIG. 3, Table 1, data not shown). […]

Cc1cc(N=Nc2ccccc2C)ccc1N [AAT, aminoazotoluene]
Relative immunofluorescent intensity of foci for ATM/ATR p (S/TQ) (ATM/ATR p (S/TQ); 3 Wk post exposure): 100 ± 20.0 | Relative immunofluorescent intensity of foci for ATM/ATR p (S/TQ) (ATM/ATR p (S/TQ); 7 Wk post exposure): 50 ± 17.5^A | Relative immunofluorescent intensity of foci for ATM p (S1987) (ATM p (S1987); 3 Wk post exposure): 100 ± 4.50 | Relative immunofluorescent intensity of foci for ATM p (S1987) (ATM p (S1987); 7 Wk post exposure): 50 ± 9.80^D | signal strength of phospho ATM in 53BP1/phospho ATM foci (ATM p (S1987)): significant decreases in the signal strength of phospho ATM | nuclear foci containing both 53BP1 and phospho ATM ([1]; 1 and 3 weeks after genotoxin exposure): elevated levels of nuclear foci | cells with 53BP1/phospho ATM foci ([1]; 7 weeks after exposure, versus unexposed control mice): still present at higher levels than in the unexposed control mice | 53BP1 foci in hepatocytes [2]: Appearance of 53BP1 foci | phospho Chk2 positive nuclei (phospho Chk2 (T68); 0.5 and 1 week after exposure): high levels of nuclear staining | activation of Chk2 (T68) over time (phospho Chk2 (T68); baseline or near baseline levels by 3-7 weeks post exposure): activated only transiently | activation of p53 (S 15) over time (p53 (S 15)): activated only transiently | S phase entry of isolated hepatocytes (primary hepatocytes [3]): defective for S phase entry | SA β Gal staining of isolated hepatocytes (primary hepatocytes [4]): positive for SA β Gal

CO[C@@]12[C@H](COC(N)=O)C3=C(C(=O)C(C)=C(N)C3=O)N1C[C@@H]1N[C@@H]12 [mitomycin C]
signal strength of phospho ATM in 53BP1/phospho ATM foci (ATM p (S1987)): significant decreases in the signal strength of phospho ATM

— patent US20130011855A1, “Methods for Determining Aged Based Accumulation of Senescent Cells Using Senescense Specific DNA Damage Markers” (priority 2008, published 2013)
